Results taken from patent US20130029942A1, “COMPOUNDS AND THERAPEUTICAL USES THEREOF” (Myrexis, Inc., priority 2003, published 2013).

These molecules were tested on P388 murine leukemia cell line (assay: P388 cytotoxicity (ATP-Lite, 72 hours)). Conditions: Mus musculus, P388, 72 hours.
Format: cell-based
Description: A P388 murine leukemia cell line was obtained from NCI, Frederick, Md. P388 cells were cultured in RPMI-1640 supplemented with 10% fetal bovine serum, 2 mM Glutamax, 1 mM sodium pyruvate, 0.1 mM non-essential amino acids and 10 mM HEPES. Cells were grown at 37° C. in a humidified 5% CO2 atmosphere. Exponentially growing P388 cells were plated at 5,000 cells/well in a 96-well flat-bottomed microtiter plate (Corning, Costar #3595). […] Cellular viability was determined 72 hours later by measuring intracellular ATP with ATP-Lite assay system. The effect of compounds on cell viability was calculated by comparing the ATP levels of cells exposed to test compound with those of cells exposed to DMSO. […] Data was analyzed by Prism software (GraphPad; San Diego, Calif.) by fitting it to a sigmoidal dose response curve.

Row | Structure (SMILES) | IC50 [nM]
1 | COC(=O)COc1ccc(N(C)c2nc(C)nc3ccccc23)cc1 [Example 143, {4-[Methyl-(2-methyl-quinazolin-4-yl)-amino]phenoxy}-acetic acid methyl ester] | 2200
2 | Cc1nc(N(C)c2ccc(OCC(=O)O)cc2)c2ccccc2n1 [Example 144, {4-[Methyl-(2-methyl-quinazolin-4-yl)-amino]phenoxy}-acetic acid] | 1700
3 | COc1ccc(N(C)c2nc(NCCN)nc3ccccc23)cc1 [Example 145, N^2-(2-Amino-ethyl)-N^4-(4-methoxy-phenyl)-N^4-methyl-quinazoline-2,4-diamine] | 38
4 | COc1ccc(N(C)c2nc(OC(C)C)nc3ccccc23)cc1 [Example 156, (2-Isopropoxy-quinazolin-4-yl)-(4-methoxy-phenyl)-methyl-amine] | 6
5 | CNc1nc(N(C)c2ccc(OC)c(OC)c2)c2ccccc2n1 [Example 167, N^4-(3,4-Dimethoxy-phenyl)-N^2,N^4-dimethyl-quinazoline-2,4-diamine] | 15
6 | COc1ccc(N(C)c2nc(N(C)C)nc3ccccc23)cc1OC [Example 168, N^4-(3,4-Dimethoxy-phenyl)-N^2,N^2,N^4-trimethyl-quinazoline-2,4-diamine] | 45
7 | CONc1nc(N(C)c2ccc(OC)cc2)c2ccccc2n1 [Example 172, N-{4-[(4-Methoxy-phenyl)-methyl-amino]-quinazolin-2-yl}-O-methyl-hydroxylamine] | 2
8 | COc1ccc(N(C)c2nc(N(C)CCO)nc3ccccc23)cc1 [Example 174, 2-({4-[(4-Methoxy-phenyl)-methyl-amino]-quinazolin-2-yl}-methyl-amino)-ethanol] | 22
9 | COc1ccc(N(C)c2nc(NCCN)nc3ccc(OC)cc23)cc1 [Example 175, N^2-(2-Amino-ethyl)-6-methoxy-N^4-(4-methoxy-phenyl)-N^4-methyl-quinazoline-2,4-diamine] | 5000
10 | COc1ccc(N(C)c2nc(C)nc3sccc23)cc1 [Example 176, (4-Methoxy-phenyl)-methyl-(2-methyl-thieno[2,3-d]pyrimidin-4-yl)-amine] | 3
11 | COc1ccccc1CN(C)c1nc(Cl)nc2ccccc12 [Example 177, (2-Chloro-quinazolin-4-yl)-(2-methoxy-benzyl)-methyl-amine] | 970
12 | COc1ccc(N(C)c2nc(NCCCl)nc3ccccc23)cc1 [Example 178, N^2-(2-Chloro-ethyl)-N^4-(4-methoxy-phenyl)-N^4-methyl-quinazoline-2,4-diamine] | 18
13 | COc1cccc(CN(C)c2nc(Cl)nc3ccccc23)c1 [Example 179, (2-Chloro-quinazolin-4-yl)-(3-methoxy-benzyl)-methyl-amine] | 1400
14 | COc1ccc(N(C)c2nc(NCCCO)nc3ccccc23)cc1 [Example 180, 3-{4-[(4-Methoxy-phenyl)-methyl-amino]-quinazolin-2-ylamino}-propan-1-ol] | 5
15 | COc1ccc(N(C)c2nc(NCCCCO)nc3ccccc23)cc1 [Example 181, 4-{4-[(4-Methoxy-phenyl)-methyl-amino]-quinazolin-2-ylamino}-butan-1-ol] | 13
16 | CCOc1nc(N(C)c2ccc(OC)cc2)c2ccccc2n1 [Example 182, (2-Ethoxy-quinazolin-4-yl)-(4-methoxy-phenyl)-methyl-amine] | 2300
17 | COc1ccc(N(C)c2nc(N(C)CCCN(C)C)nc3ccccc23)cc1 [Example 183, N^2-(3-Dimethylamino-propyl)-N^4-(4-methoxy-phenyl)-N^2,N^4-dimethyl-quinazoline-2,4-diamine] | 490
18 | COc1ccc(N(C)c2nc(NCCCCN)nc3ccccc23)cc1 [Example 184, N^2-(4-Amino-butyl)-N^4-(4-methoxy-phenyl)-N^4-methyl-quinazoline-2,4-diamine] | 500
19 | COc1ccc(N(C)c2nc(C)nc3ccsc23)cc1 [Example 185, (4-Methoxy-phenyl)-methyl-(2-methyl-thieno[3,2-d]pyrimidin-4-yl)-amine] | 7
20 | COc1ccc(N(C)c2nc(NCCO)nc3ccc([N+](=O)[O-])cc23)cc1 [Example 186, 2-{4-[(4-Methoxy-phenyl)-methyl-amino]-6-nitro-quinazolin-2-ylamino}-ethanol] | 1800

These molecules were tested on T-47D cells (assay: Caspase cascade activation / induction of apoptosis in T-47D cells (fluorogenic N-(Ac-DEVD)-N'-ethoxycarbonyl-R110 substrate)). Conditions: Homo sapiens, T47D; T-47D, 24 hr; read-out: T-47D (24 hr) EC50.
Format: cell-based, human

Row | Structure (SMILES) | EC50 [nM]
21 | Cc1nc(N(C)c2ccc(C(=O)O)cc2)c2ccccc2n1 [Example 116, 4-(N-Methyl-N-(2-methylquinazolin-4-yl)amino)benzoic Acid] | > 10000
22 | CCOC(=O)c1nc(N(C)c2ccc(OC)cc2)c2ccccc2n1 [Example 117, Ethyl 4-(N-(4-Methoxy-phenyl)-N-methylamino)quinazoline-2-carboxylate] | 134
23 | COc1ccc(N(C)c2nc(C(=O)O)nc3ccccc23)cc1 [Example 118, 4-(N-(4-Methoxy-phenyl)-N-methylamino)quinazoline-2-carboxylic acid] | > 10000
24 | Cc1nc(N(C)c2ccc(C(=O)ON3C(=O)CCC3=O)cc2)c2ccccc2n1 [Example 119, Succinimidyl 4-(N-Methyl-N-(2-methylquinazolin-4-yl)amino)benzoic acid ester] | 4290
25 | COc1ccc(N(C)c2nc(SC)nc3ccccc23)cc1 [Example 120, (2-Methylthio-quinazolin-4-yl)-(4-methoxy-phenyl)-methyl-amine] | 8
26 | COc1ccc(N(C)c2nc(N=[N+]=[N-])nc3ccccc23)cc1 [Example 121, (2-Azido-quinazolin-4-yl)-(4-methoxy-phenyl)-methyl-amine] | 30
27 | COc1ccc(N(C)c2nc(N(C)C)nc3ccccc23)cc1 [Example 122, (2-Dimethylamino-quinazolin-4-yl)-(4-methoxy-phenyl)-methyl-amine] | 16
28 | CNc1nc(N(C)c2ccc(OC)cc2)c2ccccc2n1 [Example 123, (2-Methylamino-quinazolin-4-yl)-(4-methoxy-phenyl)-methyl-amine] | 8
29 | Cc1nc(N(C)c2ccc(F)cc2)c2ccccc2n1 [Example 124, (4-Fluoro-phenyl)-(2-methyl-quinazolin-4-yl)-methyl-amine] | 408
30 | COc1ccc(N(C)c2nc(C)nc3ccccc23)nn1 [Example 125, (6-Methoxy-pyridazin-3-yl)-(2-methyl-quinazolin-4-yl)-methyl-amine] | 385
31 | COc1cnc(N(C)c2nc(C)nc3ccccc23)cn1 [Example 126, (5-Methoxy-pyrazin-2-yl)-(2-methyl-quinazolin-4-yl)-methyl-amine] | 55
32 | Cc1nc(Nc2ccc(O)cc2)c2ccccc2n1 [Example 127, (4-hydroxy-phenyl)-(2-methyl-quinazolin-4-yl)-amine] | > 10000
33 | COc1ccc(N(C)c2nc(N(C)C)nc3ccccc23)cn1 [Example 128, (2-Dimethylamino-quinazolin-4-yl)-(6-methoxy-pyridin-3-yl)-methyl-amine] | 58
34 | CNc1nc(N(C)c2ccc(OC)nc2)c2ccccc2n1 [Example 129, (2-Methylamino-quinazolin-4-yl)-(6-methoxy-pyridin-3-yl)-methyl-amine] | 27
35 | C[C@H]1CC[C@@H](Nc2nc(Cl)nc3ccccc23)CC1 [Example 130, (2-Chloro-quinazolin-4-yl)-(cis-4-methylcyclohexyl)-amine] | > 10000
36 | C[C@H]1CC[C@H](Nc2nc(Cl)nc3ccccc23)CC1 [Example 131, (2-chloro-quinazolin-4-yl)-(trans-4-methylcyclohexyl)-amine] | > 10000
37 | CN(c1nc(Cl)nc2ccccc12)[C@H]1CC[C@@H](C)CC1 [Example 132, (2-Chloro-quinazolin-4-yl)-(cis-4-methylcyclohexyl)-methyl-amine] | > 10000
38 | CN(c1nc(Cl)nc2ccccc12)[C@H]1CC[C@H](C)CC1 [Example 133, (2-Chloro-quinazolin-4-yl)-(trans-4-methylcyclohexyl)-methyl-amine] | > 10000
39 | Cc1nc(N(C)c2cnccn2)c2ccccc2n1 [Example 134, (2-Methyl-quinazolin-4-yl)-(pyrazin-2-yl)-methyl-amine] | > 10000
40 | Cc1nc(Nc2ccncc2)c2ccccc2n1 [Example 135, (2-Methyl-quinazolin-4-yl)-(pyridin-4-yl)-amine] | > 10000
41 | Cc1nc(N(C)c2ccncc2)c2ccccc2n1 [Example 136, (2-Methyl-quinazolin-4-yl)-(pyridin-4-yl)-methyl-amine] | > 10000
42 | COc1ccc(Nc2nc(C)nc3ccccc23)nc1 [Example 137, (5-Methoxy-pyridin-2-yl)-(2-methyl-quinazolin-4-yl)-amine] | > 10000
43 | COc1ccc(N(C)c2nc(C)nc3ccccc23)nc1 [Example 138, (5-Methoxy-pyridin-2-yl)-(2-methyl-quinazolin-4-yl)-methyl-amine] | 15
44 | COc1ccc(N(c2nc(C)nc3ccccc23)C(F)F)cc1 [Example 139, Difluoromethyl-(4-methoxy-phenyl)-(2-methyl-quinazolin-4-yl)-amine] | 4660
45 | COc1ccc(N(C)c2nc(C)nc3nccnc23)cc1 [Example 140, (4-Methoxy-phenyl)-(2-methyl-pteridin-4-yl)-methyl-amine] | 27
46 | COc1cnc(Nc2nc(C)nc3ccccc23)nc1 [Example 141, (5-Methoxy-pyrimidin-2-yl)-(2-methyl-quinazolin-4-yl)-amine] | > 10000

Same assay, conditions: T-47D, 24 hr

Row | Structure (SMILES) | T-47D (24 hr) Ratio (caspase activity, net RFU compound / control)
47 | C[C@H]1CC[C@H](Nc2nc(Cl)nc3ccccc23)CC1 [Example 131, (2-chloro-quinazolin-4-yl)-(trans-4-methylcyclohexyl)-amine] | 1.2
